# Assay: Inhibition of HCV protease
# Design: species or system Hepacivirus hominis
row,IC50 [µM],SMILES
1,7.7,CCCC(=O)c1cc2c(c(O)c1C)C(=O)C(=O)c1c(O)cccc1-2
2,35,CC1Cc2cccc(O)c2C(=O)O1 (stereo not drawn) [MELLEIN]

row,SMILES,IC50 [µM]
1,O=C1C=C2C(=CCOC2O)O1 (stereo not drawn) [PATULIN],24.7
